The values that follow come from PubChem BioAssay (NCI).

Values joined by “and” are separate entries in the source; they are usually repeats but may differ in a detail not shown here. Identical values can stand only once.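 Protocol summary: plate cells (96-well), add compound at 5 concentrations, incubate 48 h, interpolate endpoints linearly. GI50: concentration for 50% inhibition of growth. TGI: concentration producing complete growth inhibition.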 Some results are limits rather than exact numbers.

Test systems include PC-3 prostate; U251 CNS; CCRF-CEM leukemia; DU-145 prostate; LOX IMVI melanoma; 786-0 renal; SK-OV-3 ovarian; MOLT-4 leukemia.
Common to all, as to assay: inhibition of tumour cell growth, NCI panel, 48 h

With `NC(=O)Nc1cc(-c2cccc(F)c2)sc1C(=O)N[C@H]1CCCNC1`, the GI50 with PC-3 prostate was 0.502 µM and 0.521 µM; in the assay on U251 CNS, 0.354 µM and 0.526 µM; in the assay with CCRF-CEM leukemia, 0.0414 µM and 0.124 µM; in the assay with DU-145 prostate, 0.21 µM and 0.435 µM; with LOX IMVI melanoma, 0.0603 µM and 0.199 µM; in the assay on 786-0 renal it was 0.0717 µM and 0.166 µM. For the same compound, the GI50 with SK-OV-3 ovarian was 0.132 µM and 0.329 µM; with MOLT-4 leukemia it was 0.0606 µM and 0.26 µM. Also, the TGI is > 10 µM and 17.5 µM in the assay with PC-3 prostate; > 4.59 µM and 2.53 µM in the assay with U251 CNS; > 2.96 µM and 3 µM in the assay on CCRF-CEM leukemia; 2.07 µM and 3.81 µM in the assay with DU-145 prostate; 1.04 µM and 1.12 µM in the assay on LOX IMVI melanoma; 1.35 µM and 0.634 µM in the assay on 786-0 renal. Besides, the TGI was 1.69 µM and 3.17 µM in the assay with SK-OV-3 ovarian; > 10 µM and 1.8 µM with MOLT-4 leukemia.
Consider `O=[N+]([O-])c1cc(Cl)cnc1Br`, for which the TGI is 20.2 µM in the assay on PC-3 prostate; 5.32 µM in the assay with U251 CNS; 19.6 µM with CCRF-CEM leukemia; greater than 100 µM in the assay on DU-145 prostate; 3.16 µM with LOX IMVI melanoma; 20.2 µM in the assay with 786-0 renal. For the same compound, the TGI was found to be 22.4 µM in the assay on SK-OV-3 ovarian and 4.52 µM in the assay with MOLT-4 leukemia.
Consider `CN(C)CC1CCC2=C(C1=O)C(c1ccc(Cl)c(Cl)c1)C1=C(CCC(CN(C)C)C1=O)O2` (centres undefined), for which the TGI in the assay on PC-3 prostate worked out at 19.9 µM; in the assay on U251 CNS it was 23.9 µM; in the assay with CCRF-CEM leukemia, 26.3 µM; in the assay with DU-145 prostate, 9.09 µM; with LOX IMVI melanoma, 15.2 µM; in the assay with 786-0 renal it was 2.98 µM. In addition, the TGI in the assay with SK-OV-3 ovarian was determined as 26 µM; in the assay with MOLT-4 leukemia, 22.1 µM. For the same compound, the GI50 was 11.7 µM in the assay on U251 CNS; 3.33 µM with CCRF-CEM leukemia; 2.91 µM in the assay on DU-145 prostate; 3.14 µM in the assay on LOX IMVI melanoma; 1.58 µM in the assay with 786-0 renal; 13.3 µM in the assay on SK-OV-3 ovarian. Besides, the GI50 in the assay with MOLT-4 leukemia is 5.18 µM.
In the case of `COc1ccc(Cl)c(Nc2nc3ccccc3nc2NS(=O)(=O)c2cccc(NC(=O)C(C)(C)N)c2)c1`, the GI50 with PC-3 prostate was 3.42 µM and 2.65 µM; in the assay on U251 CNS, 11 µM and > 10 µM; in the assay with CCRF-CEM leukemia it was 12.3 µM and > 10 µM; in the assay on DU-145 prostate it was 12.1 µM and > 10 µM; with LOX IMVI melanoma, 6.52 µM and 4.14 µM; with 786-0 renal, 6.19 µM and 5.38 µM. For the same compound, the GI50 in the assay with SK-OV-3 ovarian is 5 µM and 1.89 µM; in the assay on MOLT-4 leukemia, 3.5 µM and 3.66 µM. The TGI is 17.5 µM and > 10 µM with PC-3 prostate; 24.1 µM and > 10 µM in the assay on U251 CNS; 31.9 µM and > 10 µM in the assay on CCRF-CEM leukemia; 25 µM and > 10 µM in the assay on DU-145 prostate; 20.2 µM and > 10 µM in the assay with LOX IMVI melanoma; 19.8 µM and > 10 µM with 786-0 renal. Further, the TGI was 18.6 µM and > 10 µM in the assay on SK-OV-3 ovarian; 17.4 µM and > 10 µM in the assay on MOLT-4 leukemia.
`CCN1C(=O)N(CC)C2C1NN=c1s/c(=C\c3ccccn3)c(=O)n12` (centres undefined): the GI50 is 1.79 µM in the assay with PC-3 prostate; 2.96 µM in the assay on U251 CNS; 1.53 µM in the assay with CCRF-CEM leukemia; 2.4 µM with DU-145 prostate; 5.71 µM with LOX IMVI melanoma; 4.7 µM in the assay on 786-0 renal. Also, the GI50 is 3.92 µM in the assay on SK-OV-3 ovarian and 1.57 µM in the assay on MOLT-4 leukemia. Also, the TGI with PC-3 prostate, with U251 CNS, in the assay on CCRF-CEM leukemia, in the assay with DU-145 prostate, in the assay on LOX IMVI melanoma and in the assay with 786-0 renal was greater than 100 µM throughout. The TGI in the assay on SK-OV-3 ovarian and with MOLT-4 leukemia was greater than 100 µM each time.
In the case of `Cc1ccc(C(=O)NC2CCC2)cc1-c1ccc(C(=O)NCC2CC2)cc1`, the GI50 in the assay on PC-3 prostate, in the assay on U251 CNS, in the assay on CCRF-CEM leukemia, with DU-145 prostate, with LOX IMVI melanoma and in the assay on 786-0 renal was greater than 25 µM each time. In addition, the GI50 in the assay on SK-OV-3 ovarian and with MOLT-4 leukemia was greater than 25 µM throughout. In addition, the TGI with PC-3 prostate, with U251 CNS, in the assay with CCRF-CEM leukemia, in the assay with DU-145 prostate, in the assay on LOX IMVI melanoma and in the assay on 786-0 renal was greater than 25 µM each time. The TGI in the assay on SK-OV-3 ovarian and in the assay on MOLT-4 leukemia was greater than 25 µM throughout.
On to `NC(=O)c1ccc(-c2nc(-c3ccc4c(c3)OCO4)c(-c3ccccn3)[nH]2)cc1`, for which the GI50 with PC-3 prostate is > 25 µM and 43.2 µM; with U251 CNS it was > 25 µM and 44.5 µM; in the assay on CCRF-CEM leukemia, > 25 µM and 38.4 µM; in the assay with DU-145 prostate, > 25 µM and 38.7 µM; in the assay on LOX IMVI melanoma, > 25 µM and 26.9 µM; with 786-0 renal it was > 25 µM and 36.4 µM. Besides, the GI50 in the assay with SK-OV-3 ovarian is > 25 µM and 39.5 µM; in the assay with MOLT-4 leukemia, > 25 µM and 38.8 µM. The TGI in the assay on PC-3 prostate was greater than 100 µM; in the assay with U251 CNS, greater than 100 µM; with CCRF-CEM leukemia, greater than 100 µM; with DU-145 prostate, greater than 100 µM; in the assay with LOX IMVI melanoma, greater than 84.4 µM; in the assay with 786-0 renal it was greater than 100 µM. Also, the TGI in the assay on SK-OV-3 ovarian and in the assay with MOLT-4 leukemia was greater than 100 µM in each case.
As to `O=C1NOC(c2ccc(O)cc2)(c2ccc(O)cc2)c2ccccc21`, the GI50 in the assay with PC-3 prostate, in the assay with U251 CNS, in the assay with CCRF-CEM leukemia, in the assay on DU-145 prostate, in the assay on LOX IMVI melanoma and in the assay with 786-0 renal was greater than 100 µM each time. Further, the GI50 in the assay on SK-OV-3 ovarian and in the assay on MOLT-4 leukemia was greater than 100 µM in each case. The TGI in the assay with PC-3 prostate, in the assay with U251 CNS, in the assay on CCRF-CEM leukemia, with DU-145 prostate, in the assay on LOX IMVI melanoma and in the assay with 786-0 renal was greater than 100 µM each time. The TGI in the assay on SK-OV-3 ovarian and with MOLT-4 leukemia was greater than 100 µM in each case.
